Consider 4 compounds from PMC11409218, “Metal(triphenylphosphine)-atovaquone Complexes: Synthesis, Antimalarial Activity, and Suppression of Heme Detoxification” (Inorganic Chemistry, 2024).

As a reminder, the CC50 is the concentration that lowers cell viability or growth by half. As usually defined, the IC50 is the concentration needed to halve the response being measured.

The test system of one data set is J774 cells. The data set can be described thus: Cytotoxicity in mammalian cells (CellTiter-Glo), J774. The class given is cell-based. To be noted: J774 murine macrophage line; 72 h drug incubation; mean of three experiments; read-out: mammalian cells CC50 (±SEM), J774. The method, then:
(§1) Cell lines J774 and HepG2 were incubated with the drug for 72 h, the same time frame as employed to determine antimalarial activity. Cytotoxicity was evaluated in parallel with ATV as a representative parental drug, while doxorubicin was used as a standard cytotoxic drug. These experiments were also used to estimate the in vitro selectivity index (Table 2).
(§2) Doxorubicin chloridrate (Eurofarma, São Paulo, Brazil) was used as a positive control, while untreated cells were employed as negative controls. Bioluminescence readings were performed using a Filtermax F5Multi-Mode instrument (Molecular Devices, Sunnyvale, CA) using the CellTiter-Glo kit (Promega Corporation, Madison, USA). Three independent experiments were performed and CC50 values were calculated.
(In general: In ATP-based viability assays light output follows the ATP content of the culture.)

Data set [1] deals with P. falciparum 3D7 (CQ-susceptible strain). The data set can be described thus: Antiplasmodial activity, asexual blood stages, HRP2 ELISA-based assay, 3D7 strain. The class given is cell-based, Plasmodium falciparum. To be noted: read-out: P. falciparum IC50 (±SEM), 3D7. The text has this: We determined the half-maximal inhibitory concentration (IC50) of the complexes against asexual blood stages of P. falciparum using CQ-susceptible and CQ-resistant strains (Table 2). […]. Two strains were selected for the tests: the CQ-susceptible 3D7 strain (isolated in West Africa; obtained from MR4, VA, USA), and the CQ-resistant W2 strain (isolated in Indochina; obtained from MR4, VA, USA). Both were maintained in culture in RPMI 1640 (Invitrogen, Paisley, UK), supplemented with 10% human serum (Abcys S.A. Paris, France), and buffered with 25 mM HEPES and 25 mM NaHCO3. Parasites were grown in A-positive human blood (Etablissement Français du Sang, Marseille, France) in controlled atmospheric conditions that consisted of 10% O2, 5% CO2, and 85% N2 at 37 °C with 95% humidity. […]
For in vitro isotopic microtests, 25 μL/well of antimalarial drug and 200 μL/well of parasitized red blood cell suspension (final parasitemia 0.5%, final hematocrit 1.5%) were distributed into 96-well plates. The plates were incubated for 72 h at 37 °C in 85% N2, 10% O2, 5% CO2. After freezing and then thawing, the hemolyzed cultures were homogenized by vortexing the plates. The drug susceptibility assay was performed using the HRP2 ELISA-based assay of the Malaria Ag Celisa kit (ref KM2159, Cellabs PTY LDT, Brookvale, Australia), as described previously.[72] […] […]. IC50 are expressed as means of at least 5 to 7 independent experiments.

Data set [2] has as its system P. falciparum W2 (CQ-resistant strain). The data set can be described thus: Antiplasmodial activity, asexual blood stages, HRP2 ELISA-based assay, W2 strain. The class given is cell-based, Plasmodium falciparum. The settings on record: read-out: P. falciparum IC50 (±SEM), W2. The method, then: The potency of the metal complexes to inhibit parasite growth was also examined in comparison with ATV.
The two strains were synchronized twice with sorbitol before use,[69] and clonality was verified every 15 days through PCR genotyping of the polymorphic genetic markers msp1 and msp2 and microsatellite loci.[70],[71] Compounds were resuspended in DMSO and then diluted in RPMI-DMSO (99v/1v) to obtain final concentrations ranging from 0.25 to 20000 nM.
After freezing and then thawing, the hemolyzed cultures were homogenized by vortexing the plates. The drug susceptibility assay was performed using the HRP2 ELISA-based assay of the Malaria Ag Celisa kit (ref KM2159, Cellabs PTY LDT, Brookvale, Australia), as described previously.[72]
For orientation: In an ELISA, binding on a coated surface is turned into a signal by an enzyme label.

A short description of data set [3]: Interaction with ferriprotoporphyrin IX, spectroscopic titration of Soret band at 402 nm. Type of data set: binding. The settings on record: pH 7.4; 40% aqueous DMSO; 1:1 complexation model; mean and SEM of three experiments. The method, then:
The association constants (Log K) of the compounds with hemin were determined at pH 7.4 using a 1:1 complexation model with the equation proposed by Egan et al.[52] for the nonlinear least-squares fitting (Figure 2, Table 2).
Following a procedure described in the literature,[52] the association constant (Log K) of the drugs with ferriprotoporphyrin IX was determined in 40% aqueous DMSO. A stock solution of hemin chloride was prepared by adding 3.5 mg hemin to 10 mL DMSO and adjusted to pH 7.5. A working solution of hemin in 40% DMSO was further prepared by mixing 140 μL hemin stock solution, 5 mL distilled water, 3.86 mL DMSO, and 1 mL 0.2 M Tris (tris(hydroxymethyl)aminomethane) buffer. Aliquots of compounds were added to this working hemin solution. Blank solutions containing only hemin or compounds were prepared to subtract the absorbance of the compounds. […] Binding affinity was determined using the equation A = (A0 + A∞K[C])/(1 + K[C]) for a 1:1 complexation model using nonlinear least-squares fitting, where A0 is the absorbance of Fe(III)PPIX, A∞ is the absorbance of the compound–hemin adduct at saturation, and K is the association constant. Three independent experiments were performed.

For data set [4], the system named is β-hematin crystal formation. The data set can be described thus: β-Hematin crystal formation by FTIR spectroscopy. Type of data set: biochemical. To be noted: acid-buffered medium pH 5; 1:3 hematin/compound ratio. The method, then: The ability of these compounds to inhibit the formation of β-hematin crystals was investigated by IR spectroscopy (Figure 2f). Of note, β-hematin crystal formation was assayed in an acid-buffered medium, while hemin titration was assayed at neutral pH. […]. For both ATV and complexes 1–3, there may have been overlapping between a decrease in the (C = O) band of heme species and a (C = O) band of quinone. However, there was no danger of overlaps in the (C–O) band of heme species at 1210 cm^–1, since these species are absent from the drugs.
The conversion of hematin into β-hematin crystals was determined by FTIR spectroscopy as described previously.[52] In a microtube, 20 mg hemin and three equivalents of the compounds were dissolved in 3 mL 0.1 M NaOH solution and stirred for 30 min at 60 °C. Then, 0.3 mL 0.1 M HCl and 1.7 mL sodium acetate buffer (10 M, pH 5) were added at the same temperature. […] After incubation for 120 min, the reaction mixture was cooled on ice for 10 min and then centrifuged and washed with water to remove salts. Resulting crystals were dried and IR spectra were obtained using ATR mode.[66]−[68]

Data set [5] in a line: Cytotoxicity in mammalian cells (CellTiter-Glo), J774. Type of data set: cell-based. The settings on record: mouse, J774 macrophage cells; J774 murine macrophage line; 72 h drug incubation; mean of three experiments; read-out: mammalian cells CC50 (±SEM), J774. The method, then:
as §1, §2

Data set [6] is described as follows: Cytotoxicity in mammalian cells (CellTiter-Glo), HepG2. Type of data set: cell-based. The settings on record: HepG2 hepatocellular carcinoma cells; HepG2 human hepatocellular carcinoma line; 72 h drug incubation; mean of three experiments; read-out: mammalian cells CC50 (±SEM), HepG2. The method, then:
as §1, §2

[7] abbreviates: CQ-susceptible 3D7 strain, 72 h drug incubation, mean of five to seven experiments.
Where [8] appears, read: CQ-resistant W2 strain, 72 h drug incubation, mean of five to seven experiments.

Like-named read-outs stand apart in the source and are kept apart here.

On to `[Cl][Au].c1ccc(P(c2ccccc2)c2ccccc2)cc1` [AuClPPh3, [Au(PPh3)Cl]], for which, in the data set on J774 cells, the CC50 worked out at 4100 ± 800 nM. Further, the results for the IC50 in data set [1] (setting [7]) and in data set [2] (setting [8]) were 1430 ± 309 nM and 3290 ± 629 nM, respectively.

On to `CCN(CC)CCCC(C)Nc1ccnc2cc(Cl)ccc12` (stereo not drawn) [CQ, chloroquine], for which the IC50 in data set [1] (Plasmodium falciparum, 3D7, 72 h) amounted to 23.8 ± 5.5 nM; in data set [2] (Plasmodium falciparum, W2, 72 h), 526 ± 126 nM. Besides, the “log K (association constant of drug binding to hemin)” value in data set [3] turned out to be 4.78 ± 0.01. In data set [4], the “inhibition of β-hematin crystal formation (IR bands 1663 and 1210 cm^–1)” value is given as “decreased simultaneously in these two bands”.

As to `COc1cccc2c1C(=O)c1c(O)c3c(c(O)c1C2=O)C[C@@](O)(C(=O)CO)C[C@@H]3O[C@H]1C[C@H](N)[C@H](O)[C@H](C)O1` [DOX, Doxorubicin, reference compound], the CC50 at 72 h is 440 ± 310 nM in data set [5] and under 120 nM in data set [6].

Consider `O=[N+]([O-])[O-].[Cu+].c1ccc(P(c2ccccc2)c2ccccc2)cc1.c1ccc(P(c2ccccc2)c2ccccc2)cc1` [[Cu(PPh3)2NO3]], for which the CC50 in the data set on J774 cells was over 80000 nM. For the same compound, the IC50 in data set [1] (setting [7]) and in data set [2] (setting [8]) was over 20000 nM throughout.
